Test results reported in ChEMBL document CHEMBL4431294 (Medchemcomm, 2016).
Values after ≈ are worked out from the molar mass of the structure shown.

Key:
[1] = Binding affinity to 22-mer TAT triplex DNA (unknown origin) at 8 uM by isothermal titration calorimetry
[2] = test system: Bordetella bronchiseptica; experiment: Antibacterial activity against Bordetella bronchiseptica; assay type: functional
Staphylococcus aureus [3] = experiment: Antibacterial activity against Staphylococcus aureus; assay type: functional
Escherichia coli [4] = experiment: Antibacterial activity against Escherichia coli; assay type: functional
Bacillus subtilis = experiment: Antibacterial activity against Bacillus subtilis; assay type: functional
[5] = Antibacterial activity against Eberthella typhosa; assay type: functional
Klebsiella pneumoniae [6] = experiment: Antibacterial activity against Klebsiella pneumoniae; assay type: functional
Proteus vulgaris = experiment: Antibacterial activity against Proteus vulgaris; assay type: functional
[7] = test system: Mycobacterium tuberculosis; experiment: Antibacterial activity against Mycobacterium tuberculosis 607; assay type: functional
[8] = test system: Salmonella enterica subsp. enterica serovar Paratyphi B; experiment: Antibacterial activity against Salmonella schottmuelleri; assay type: functional
[9] = target: Rev responsive element (RRE) RNA; experiment: Displacement of fluorescein-labeled RevF1 from HIV1 66-nucleotide RRE RNA by fluorescence anisotropy method; assay type: nucleic-acid assay, Human immunodeficiency virus 1
Pseudomonas aeruginosa [10] = experiment: Antibacterial activity against Pseudomonas aeruginosa after 12 hrs; assay type: functional, organism-based
Staphylococcus aureus [11] = experiment: Antibacterial activity against Staphylococcus aureus ATCC 29213; assay type: functional
Escherichia coli [12] = experiment: Antibacterial activity against Escherichia coli ATCC 25922; assay type: functional
Klebsiella pneumoniae [13] = experiment: Antibacterial activity against Klebsiella pneumoniae ATCC 10031; assay type: functional
Pseudomonas aeruginosa [14] = experiment: Antibacterial activity against Pseudomonas aeruginosa ATCC 27853 harboring APH(3'); assay type: functional
Staphylococcus aureus [15] = experiment: Antibacterial activity against Staphylococcus aureus harboring ANT(4'); assay type: functional
[16] = Binding affinity to pre-microRNA-27a (unknwon origin) at 500 nM by spectrofluorometric method

CC(=O)c1ccc2c(ccc3nc4c(NCCCNC(=O)NCCSC[C@H]5O[C@@H](O[C@@H]6[C@@H](O)[C@H](N)C[C@H](N)[C@H]6O[C@H]6O[C@H](CN)[C@@H](O)[C@H](O)[C@H]6N)[C@H](O)[C@@H]5O[C@H]5OC(CN)[C@@H](O)[C@H](O)[C@H]5N)nc5ccccc5c4nc32)c1 (some centres not stated)
Kd [1]: 27 nM

NC[C@H]1O[C@H](O[C@H]2[C@H](O)[C@@H](O)[C@H](N)C[C@@H]2N)[C@H](N)[C@@H](O)[C@@H]1O [NEAMINE]
MIC [2]: 3.3 µg/mL (≈ 10.2 µM)
MIC (Staphylococcus aureus [3]): 0.13 µg/mL (≈ 0.403 µM)
MIC (Escherichia coli [4]): 1 µg/mL (≈ 3.1 µM)
MIC (Bacillus subtilis): 1 µg/mL (≈ 3.1 µM)
MIC [5]: 0.17 µg/mL (≈ 0.527 µM)
MIC (Klebsiella pneumoniae [6]): 0.5 µg/mL (≈ 1.55 µM)
MIC (Proteus vulgaris): < 0.33 µg/mL
MIC [7]: 5 µg/mL (≈ 15.5 µM)
MIC [8]: 1 µg/mL (≈ 3.1 µM)

NCC1O[C@H](O[C@H]2[C@@H](O)[C@H](O[C@@H]3[C@@H](O)[C@H](N)C[C@H](N)[C@H]3O[C@H]3O[C@H](CN)[C@@H](O)[C@H](O)[C@H]3N)O[C@@H]2CNc2c3ccccc3nc3ccccc23)[C@H](N)[C@@H](O)[C@@H]1O (some centres not stated)
Kd [9]: ≤ 10 nM

NC[C@H]1O[C@H](O[C@H]2[C@H](NCCCCCCCCNC(=O)c3cc4c(cn3)[nH]c3ccccc34)[C@@H](O)[C@H](N)C[C@@H]2N)[C@H](N)[C@@H](O)C1O (single isomer, unassigned)
IC50 (Pseudomonas aeruginosa [10]): 85.4 µg/mL (≈ 133 µM)

NCC1=CC[C@@H](N)[C@@H](O[C@H]2[C@H](O[C@@H]3O[C@H](CO)[C@@H](O[C@H]4O[C@@H](CN)[C@@H](O)[C@H](O)[C@H]4N)[C@H]3O)[C@@H](O)[C@H](N)C[C@@H]2N)O1
MIC (Staphylococcus aureus [11]): 0.5 to 2 µg/mL (≈ 0.861 to 3.44 µM)
MIC (Escherichia coli [12]): 0.5 to 2 µg/mL (≈ 0.861 to 3.44 µM)
MIC (Klebsiella pneumoniae [13]): 0.5 to 2 µg/mL (≈ 0.861 to 3.44 µM)
MIC (Pseudomonas aeruginosa [14]): 0.5 to 2 µg/mL (≈ 0.861 to 3.44 µM)
MIC (Staphylococcus aureus [15]): 0.5 to 2 µg/mL (≈ 0.861 to 3.44 µM)

CN1CCN(c2ccc3nc(-c4ccc5[nH]c(-c6ccc(OCc7cn(CCCCC(=O)C(CCn8cc(OCc9cn(C[C@H]%10O[C@@H](O[C@@H]%11[C@@H](O)[C@H](N)C[C@H](N)[C@H]%11O[C@H]%11O[C@H](CN)[C@@H](O)[C@H](O)[C@H]%11N)[C@H](O)[C@@H]%10O[C@H]%10O[C@@H](CN)[C@@H](O)[C@H](O)[C@H]%10N)nn9)nn8)CCn8cc(OCc9cn(C[C@H]%10O[C@@H](O[C@@H]%11[C@@H](O)[C@H](N)C[C@H](N)[C@H]%11O[C@H]%11O[C@H](CN)[C@@H](O)[C@H](O)[C@H]%11N)[C@H](O)[C@@H]%10O[C@H]%10O[C@@H](CN)[C@@H](O)[C@H](O)[C@H]%10N)nn9)nn8)nn7)cc6)cc5c4)[nH]c3c2)CC1
Ka [16]: 1.2 to 7.4 ×10⁸ /M

NCC1O[C@H](O[C@H]2[C@@H](O)[C@H](O[C@@H]3[C@@H](O)[C@H](N)C[C@H](N)[C@H]3O[C@H]3O[C@H](CN)[C@@H](O)[C@H](O)[C@H]3N)O[C@@H]2CO)[C@H](N)[C@@H](O)[C@@H]1O (some centres not stated)
MIC [2]: 0.5 µg/mL (≈ 0.813 µM)
MIC (Staphylococcus aureus [3]): 0.017 µg/mL (≈ 0.0277 µM)
MIC (Escherichia coli [4]): 0.1 µg/mL (≈ 0.163 µM)
MIC (Bacillus subtilis): 0.01 µg/mL (≈ 0.0163 µM)
MIC [5]: 0.033 µg/mL (≈ 0.0537 µM)
MIC (Klebsiella pneumoniae [6]): 0.05 µg/mL (≈ 0.0813 µM)
MIC (Proteus vulgaris): 1 µg/mL (≈ 1.63 µM)
MIC [7]: 0.33 µg/mL (≈ 0.537 µM)
MIC [8]: 0.1 µg/mL (≈ 0.163 µM)
